The source of these data is publication PMC3837394 (Advances in Protein Chemistry and Structural Biology, 2012).

A word on the IC50: it is the concentration that inhibits the measured activity by half. A low value points to greater potency. A word on the inhibition: it is how much of the control response was suppressed.

Experiment in all cases: colorimetric ELISA-like DNMT activity assay
Format in all cases: biochemical
For orientation: An ELISA detects its analyte on a solid surface through an enzyme-linked reagent.

Assay [1] concerns the target T1, full-length human DNMT1 (Homo sapiens, UniProt P26358).
Assay [2] addresses T1, full-length human DNMT1. The conditions noted are these: read-out: % inhibition at 100 μM.
The target of another assay is murine Dnmt3a (Mus musculus, UniProt O88508).

T1 sequence (P26358 whole entry): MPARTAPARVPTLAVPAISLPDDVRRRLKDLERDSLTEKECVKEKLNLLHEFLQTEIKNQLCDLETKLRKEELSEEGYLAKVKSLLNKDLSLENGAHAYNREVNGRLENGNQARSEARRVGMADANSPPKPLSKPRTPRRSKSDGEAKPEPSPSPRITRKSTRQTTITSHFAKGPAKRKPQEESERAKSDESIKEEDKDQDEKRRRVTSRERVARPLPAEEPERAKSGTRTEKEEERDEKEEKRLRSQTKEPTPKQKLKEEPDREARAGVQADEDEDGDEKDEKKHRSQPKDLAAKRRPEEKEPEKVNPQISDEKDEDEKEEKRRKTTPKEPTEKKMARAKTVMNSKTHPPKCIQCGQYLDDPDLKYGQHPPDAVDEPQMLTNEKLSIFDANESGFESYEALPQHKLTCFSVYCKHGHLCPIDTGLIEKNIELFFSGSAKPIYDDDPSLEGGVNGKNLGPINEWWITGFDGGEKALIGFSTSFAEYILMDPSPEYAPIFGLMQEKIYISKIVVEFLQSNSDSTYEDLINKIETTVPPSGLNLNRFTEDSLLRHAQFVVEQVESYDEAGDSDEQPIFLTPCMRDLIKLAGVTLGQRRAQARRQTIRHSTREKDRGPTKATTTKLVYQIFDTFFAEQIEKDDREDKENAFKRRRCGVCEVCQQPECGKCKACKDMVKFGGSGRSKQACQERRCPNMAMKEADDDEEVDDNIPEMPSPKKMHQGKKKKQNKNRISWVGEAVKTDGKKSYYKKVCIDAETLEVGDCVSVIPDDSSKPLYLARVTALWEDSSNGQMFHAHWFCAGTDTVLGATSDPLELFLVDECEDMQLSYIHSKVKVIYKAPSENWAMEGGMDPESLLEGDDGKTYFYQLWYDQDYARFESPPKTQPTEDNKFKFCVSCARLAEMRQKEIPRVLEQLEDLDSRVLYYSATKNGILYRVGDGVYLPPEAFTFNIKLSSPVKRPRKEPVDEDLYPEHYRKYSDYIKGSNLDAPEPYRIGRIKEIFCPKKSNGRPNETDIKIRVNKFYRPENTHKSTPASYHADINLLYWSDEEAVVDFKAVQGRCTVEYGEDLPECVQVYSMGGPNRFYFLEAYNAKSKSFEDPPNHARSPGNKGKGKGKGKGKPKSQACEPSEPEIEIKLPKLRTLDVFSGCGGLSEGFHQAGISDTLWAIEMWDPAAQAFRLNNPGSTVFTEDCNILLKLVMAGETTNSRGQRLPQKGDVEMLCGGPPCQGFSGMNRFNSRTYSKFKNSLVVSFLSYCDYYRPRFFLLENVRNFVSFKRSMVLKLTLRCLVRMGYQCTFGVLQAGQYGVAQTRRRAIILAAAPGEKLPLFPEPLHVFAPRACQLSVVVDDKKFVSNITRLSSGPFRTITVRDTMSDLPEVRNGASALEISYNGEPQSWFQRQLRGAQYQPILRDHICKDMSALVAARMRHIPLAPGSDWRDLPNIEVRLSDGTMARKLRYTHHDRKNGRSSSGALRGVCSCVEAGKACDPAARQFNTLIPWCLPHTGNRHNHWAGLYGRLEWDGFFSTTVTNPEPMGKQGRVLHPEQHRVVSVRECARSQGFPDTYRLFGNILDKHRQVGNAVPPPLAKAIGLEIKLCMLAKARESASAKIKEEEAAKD

On full-length human DNMT1 [1], `O=C(O[C@@H]1Cc2c(O)cc(O)cc2O[C@@H]1c1cc(O)c(O)c(O)c1)c1cc(O)c(O)c(O)c1` [EGCG] had an IC50 of 700 nM.

For `O=C(O)[C@H](Cc1c[nH]c2ccccc12)N1C(=O)c2ccccc2C1=O` [RG108], the inhibition at 100 µM on full-length human DNMT1 [2] was determined as 11%.

Regarding `O=C(O)C1=CC(=C(c2ccc(O)c(C(=O)O)c2)c2ccc(O)c(C(=O)O)c2)C=CC1=O` [aurintricarboxylic acid], the 50% inhibitory concentration (IC50) worked out at 680 nM against full-length human DNMT1 [1] and 1400 nM against murine Dnmt3a.
